Laboratory results published in patent publication US20150232876A1, “Use of a Receptor Kinase Having LysM Motifs in Order to Improve the Response of Plants to Lipochitooligosaccharides” (INSTITUT NATIONAL DE LA RECHERCHE AGRONOMIQUE, priority 2012, published 2015).

Columns and labels:
LYR3 = LYR3 (Medicago truncatula, UniProt G7KAT5); test: Saturation and competitive binding on LYR3-YFP expressed in N. benthamiana leaf membrane fractions; settings: LYR3-YFP in N. benthamiana leaf membranes; competition with 0.9 nM LCO-IV(35S, C16:2Δ2,9); read-out: Affinity (nM) for LYR3 (Ki)
Sequence of LYR3 (G7KAT5 entry or part of it): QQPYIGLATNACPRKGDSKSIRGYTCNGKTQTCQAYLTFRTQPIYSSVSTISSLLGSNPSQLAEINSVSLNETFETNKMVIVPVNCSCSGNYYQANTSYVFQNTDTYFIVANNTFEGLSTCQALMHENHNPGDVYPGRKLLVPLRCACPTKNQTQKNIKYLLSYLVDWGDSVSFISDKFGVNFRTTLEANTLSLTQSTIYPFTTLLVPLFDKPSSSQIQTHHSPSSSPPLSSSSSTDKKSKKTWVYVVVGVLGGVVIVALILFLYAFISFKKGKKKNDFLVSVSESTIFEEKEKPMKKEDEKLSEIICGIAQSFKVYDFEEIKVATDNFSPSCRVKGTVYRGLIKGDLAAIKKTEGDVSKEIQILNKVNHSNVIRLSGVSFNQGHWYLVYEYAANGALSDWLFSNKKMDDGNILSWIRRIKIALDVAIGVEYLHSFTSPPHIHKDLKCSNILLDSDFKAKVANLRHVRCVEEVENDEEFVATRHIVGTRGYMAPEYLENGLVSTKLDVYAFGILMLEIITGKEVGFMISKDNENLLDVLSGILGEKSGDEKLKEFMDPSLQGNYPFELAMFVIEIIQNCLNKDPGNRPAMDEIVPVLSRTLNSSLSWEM
Excerpt: Genes LYR3, LYK9 and LYR6 were inserted into a binary vector, fused in C-terminal with a fluorescent protein (Yellow Fluorescent Protein: YFP) and introduced into Nicotiana benthamiana leaves using agroinfiltration by Agrobacterium tumefaciens. Meanwhile, NFP and LYK3 genes which encode putative receptors […] Nod factors were inserted into the same vectors and expressed in the same conditions.
3 days after agro-infiltration, leaves of N. benthamiana expressing the different constructs were harvested and ground in liquid nitrogen. Membrane fractions were prepared from the ground material, using the same protocol as that described above for the preparation of microsomal fractions, except that 0.6% (w/v) of polyvinyl-polypyrrolidone were added to extraction buffer. After centrifugation at 3000×g, the supernatant was collected and centrifuged at 45000×g. The resulting (membrane fraction) pellet was resuspended in binding buffer, and stored at −80° C. in the presence of 10% or 50% glycerol, until use.
Membrane proteins were separated by 10% polyacrylamide gel electrophoresis in SDS, and transferred onto nitrocellulose membrane, and detection of recombinant proteins made using anti-GFP antibody. Meanwhile, the properties of specific binding to LCOs were assessed by equilibrium binding, as described in Example 1, using 0.8 to 2.4 nM of LCO-IV (^35S, C16:2Δ2, 9) +/−2 μM of unlabeled LCO-IV (S, C16: 2Δ2, 9), and 25 micrograms to 80 micrograms of membrane protein, depending of the expression level of the protein labeled with YFP.
To further characterize the binding properties of the protein LYR3, saturation binding experiments using LCO-IV (^35S, C16:2Δ2, 9) and competitive binding experiments in the presence of different COs or LCOs were performed.

PpLYR3 = PpLYR3 (Prunus persica, UniProt A0A251NBL6); test: Equilibrium, saturation and competition binding on PpLYR3 expressed in N. benthamiana leaves
Sequence of PpLYR3 (A0A251NBL6 entry or part of it): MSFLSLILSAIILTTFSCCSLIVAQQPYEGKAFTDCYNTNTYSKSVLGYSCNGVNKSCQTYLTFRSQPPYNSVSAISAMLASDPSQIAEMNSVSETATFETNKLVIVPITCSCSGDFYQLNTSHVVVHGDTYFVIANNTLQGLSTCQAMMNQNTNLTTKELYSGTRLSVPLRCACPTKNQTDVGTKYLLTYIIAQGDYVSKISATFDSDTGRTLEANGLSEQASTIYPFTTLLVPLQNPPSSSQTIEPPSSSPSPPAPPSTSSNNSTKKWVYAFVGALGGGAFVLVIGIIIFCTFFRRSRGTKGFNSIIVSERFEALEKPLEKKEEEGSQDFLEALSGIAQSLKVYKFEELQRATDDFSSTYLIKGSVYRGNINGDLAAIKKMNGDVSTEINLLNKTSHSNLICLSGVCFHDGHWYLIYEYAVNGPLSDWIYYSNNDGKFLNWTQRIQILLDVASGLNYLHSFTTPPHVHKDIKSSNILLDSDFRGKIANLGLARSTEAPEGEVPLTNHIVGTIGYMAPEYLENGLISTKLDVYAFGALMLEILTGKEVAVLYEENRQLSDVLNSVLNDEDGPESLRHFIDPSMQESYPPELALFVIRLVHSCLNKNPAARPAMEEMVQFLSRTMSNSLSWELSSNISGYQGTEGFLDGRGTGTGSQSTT
Protocol: (§1) In non-legumes, PpLYR3, SILYR3 and AtLysM-RLK4 genes have been cloned, the corresponding proteins were expressed in N. benthamiana leaves, and their ability to bind to LCOs was determined by binding experiments at equilibrium, as described above for legumes LYR3 proteins.
The interaction of PpLYR3 with the Nod LCO-IV (^35S, C16:2Δ2, 9) factor has been characterized in more detail by means of saturation and competition experiments. The results obtained are illustrated in FIG. 9. […] Similarly, PpLYR3 specifically recognizes the LCOs as interaction with COs (CO-IV and CO-VIII) is of low affinity (Ki>5 μM).

[1] = tested on: 100 kDa polypeptide (MtNFBS2); test: Photolabeling of the 100 kDa polypeptide in membrane fractions, with excess competitors; assay type: binding, Medicago truncatula; settings: 2 μM competitor, 5 nM azido ligand, dmi3 membrane fraction
Excerpt: To assess the molecular mass of the affine protein of Nod factors responsible for binding properties of MtNFBS2, a photolabeling with Nod factors analogs containing a photoactivatable group, which after irradiation in a given wavelength reactive species which can form a covalent bond with the surrounding molecules, has been taken. […] homologues of these molecules have been synthesized and labeled with ^35S to enable detection of the stable complex ligand/binding protein.
For photolabeling, 5 nM of radioactive and photoactivatable ligand, alone or in the presence of an excess (2 μM) different competitors were incubated in binding buffer, in the same conditions as described in Example 1 above for the binding experiments at equilibrium, with 300 micrograms of membrane protein fraction obtained from cultured cells of wild-type Medicago truncatula (A 17), or the dmi3 mutant of Medicago truncatula. After 1 hour of incubation, the samples were irradiated for 5 min at 254 nm or 10 min at 365 nm with a fluorescent tube at a distance of 4 cm. The free ligand was removed by centrifugation, and the membrane pellet was washed two times in binding buffer.
The membrane pellet proteins were separated by polyacrylamide gel electrophoresis in 10% SDS, and transferred onto nitrocellulose membrane, and detection was carried out by autoradiography.

AtLysM-RLK4 = target: T1, AtLysM-RLK4 (Arabidopsis thaliana, UniProt O64825); test: Equilibrium binding on AtLysM-RLK4 expressed in N. benthamiana leaves
T1 construct: YFP (implied by anti-GFP immunopurification); expressed in transfected cells; host or cells: Nicotiana benthamiana leaves, membrane fraction
T1 sequence (O64825 23-612): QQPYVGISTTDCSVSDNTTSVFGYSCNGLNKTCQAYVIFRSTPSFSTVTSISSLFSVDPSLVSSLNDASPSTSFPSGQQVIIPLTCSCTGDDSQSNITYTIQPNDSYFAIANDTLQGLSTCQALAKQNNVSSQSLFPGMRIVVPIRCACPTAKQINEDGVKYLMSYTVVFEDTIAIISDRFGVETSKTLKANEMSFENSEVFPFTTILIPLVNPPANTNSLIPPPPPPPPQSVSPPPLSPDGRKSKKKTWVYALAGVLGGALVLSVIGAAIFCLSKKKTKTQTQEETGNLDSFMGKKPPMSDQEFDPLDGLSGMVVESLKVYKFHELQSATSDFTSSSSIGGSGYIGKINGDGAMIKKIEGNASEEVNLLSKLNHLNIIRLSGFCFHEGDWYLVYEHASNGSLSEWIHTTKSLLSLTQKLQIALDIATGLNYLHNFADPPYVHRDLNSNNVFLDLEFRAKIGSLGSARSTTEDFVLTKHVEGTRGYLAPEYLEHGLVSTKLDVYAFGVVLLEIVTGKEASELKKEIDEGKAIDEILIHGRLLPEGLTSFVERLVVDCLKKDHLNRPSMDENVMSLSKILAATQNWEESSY
Protocol: as §1

SILYR3 = test: Equilibrium binding on SILYR3 expressed in N. benthamiana leaves; design: species or system Solanum lycopersicum
Protocol: as §1

LjNFR1 = test: Equilibrium binding on receptor expressed in N. benthamiana leaves; design: species or system Lotus japonicus; settings: LjNFR1, 1 nM radioligand
Excerpt: (§2) In legumes, MtLYR3 orthologs have been identified in P. sativum, P. vulgaris and L. japonicus. In G. max orthologs exist in duplicate due to a duplication of the genome. The corresponding genes have been cloned and sequenced. A few differences in sequence compared with sequences in the databases were found which could be explained by the use of different varieties of plants or by sequencing errors in databases. The cloned genes were introduced into binary vectors, in C-terminal fusion with the fluorescent protein YFP, and introduced into Nicotiana benthamiana leaves using agroinfiltration by Agrobacterium tumefaciens, as described above in Example 3. The membrane fractions were isolated, their protein content was analyzed by electrophoresis under denaturing conditions, followed by immunodetection using anti-GFP antibody as described in Example 3, and their ability to interact with LCOs was determined by equilibrium binding, as described in Example 1, in the presence of 1 nM LCO-IV (S^35, C16:2Δ2, 9). The value of specific binding is determined by the value of difference between the total binding and the nonspecific binding obtained for incubation in the presence of an excess (2 μM) of unlabeled ligand. […]

LjNFR5 = test: as above; design: species or system Lotus japonicus; settings: LjNFR5, 1 nM radioligand
Excerpt: as §2

PvLYR3 = PvLYR3 (Phaseolus vulgaris, UniProt V7CFC1); test: Equilibrium, saturation and competitive binding on MtLYR3 ortholog expressed in N. benthamiana leaves; settings: PvLYR3, 1 nM radioligand
Sequence of PvLYR3 (V7CFC1 entry or part of it): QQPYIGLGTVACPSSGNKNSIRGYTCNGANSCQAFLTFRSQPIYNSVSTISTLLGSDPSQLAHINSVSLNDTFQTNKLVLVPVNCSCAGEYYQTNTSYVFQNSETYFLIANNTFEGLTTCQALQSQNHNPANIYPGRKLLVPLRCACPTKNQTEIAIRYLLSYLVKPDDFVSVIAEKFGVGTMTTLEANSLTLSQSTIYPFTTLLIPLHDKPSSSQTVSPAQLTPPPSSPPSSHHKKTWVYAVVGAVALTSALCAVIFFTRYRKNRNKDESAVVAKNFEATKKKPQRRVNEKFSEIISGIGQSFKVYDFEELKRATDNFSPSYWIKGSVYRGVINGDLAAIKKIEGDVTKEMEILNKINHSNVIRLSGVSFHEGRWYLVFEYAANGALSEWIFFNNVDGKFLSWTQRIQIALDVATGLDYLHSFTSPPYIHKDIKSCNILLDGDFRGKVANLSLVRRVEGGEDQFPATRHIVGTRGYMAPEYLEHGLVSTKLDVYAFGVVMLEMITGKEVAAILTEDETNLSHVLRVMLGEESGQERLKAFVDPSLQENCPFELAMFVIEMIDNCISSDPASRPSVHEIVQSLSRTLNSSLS
Excerpt: (§3) In legumes, MtLYR3 orthologs have been identified in P. sativum, P. vulgaris and L. japonicus. In G. max orthologs exist in duplicate due to a duplication of the genome. The corresponding genes have been cloned and sequenced. A few differences in sequence compared with sequences in the databases were found which could be explained by the use of different varieties of plants or by sequencing errors in databases. The cloned genes were introduced into binary vectors, in C-terminal fusion with the fluorescent protein YFP, and introduced into Nicotiana benthamiana leaves using agroinfiltration by Agrobacterium tumefaciens, as described above in Example 3. The membrane fractions were isolated, their protein content was analyzed by electrophoresis under denaturing conditions, followed by immunodetection using anti-GFP antibody as described in Example 3, and their ability to interact with LCOs was determined by equilibrium binding, as described in Example 1, in the presence of 1 nM LCO-IV (S^35, C16:2Δ2, 9). The value of specific binding is determined by the value of difference between the total binding and the nonspecific binding obtained for incubation in the presence of an excess (2 μM) of unlabeled ligand. For comparison, the ability to interact of LjNFR5 and LjNFR1 receptors, identified in L. japonicus to play a role in nodulation by a genetic approach (MADSEN et al, Nature, 425, 637-40, 2003. RADUTOIU et al., Nature, 425, 585-92, 2003a) and respective orthologs of LYK3 and NFP in M. truncatula was determined under the same conditions.
(§4) To further characterize the binding properties of MtLYR3 orthologs to LCOs, saturation and competitive binding experiments in the presence of different COs or LCOs were performed.

GmLYR3-11 = GmLYR3-11 (Glycine max, UniProt I1LHL9); test: as above; settings: GmLYR3-11, 1 nM radioligand
Sequence of GmLYR3-11 (I1LHL9 entry or part of it): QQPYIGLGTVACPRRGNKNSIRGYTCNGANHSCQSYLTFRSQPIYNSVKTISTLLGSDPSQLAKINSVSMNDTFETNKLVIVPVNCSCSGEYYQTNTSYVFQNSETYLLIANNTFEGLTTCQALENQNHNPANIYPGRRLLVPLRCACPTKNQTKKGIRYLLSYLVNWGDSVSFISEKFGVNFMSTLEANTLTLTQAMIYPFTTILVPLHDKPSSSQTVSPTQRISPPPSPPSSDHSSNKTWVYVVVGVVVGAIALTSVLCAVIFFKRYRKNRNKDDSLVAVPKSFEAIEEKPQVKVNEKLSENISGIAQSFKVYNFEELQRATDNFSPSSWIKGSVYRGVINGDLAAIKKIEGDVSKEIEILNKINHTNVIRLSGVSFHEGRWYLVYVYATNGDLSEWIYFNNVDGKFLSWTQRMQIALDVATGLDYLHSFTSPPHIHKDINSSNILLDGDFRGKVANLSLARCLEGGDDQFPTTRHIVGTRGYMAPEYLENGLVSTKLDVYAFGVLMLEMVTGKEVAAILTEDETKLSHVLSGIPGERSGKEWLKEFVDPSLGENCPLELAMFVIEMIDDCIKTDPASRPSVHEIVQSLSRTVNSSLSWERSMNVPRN
Excerpt: as §3, §4

GmLYR3-1 = GmLYR3-1 (Glycine max, UniProt A5YJW2); test: as above; settings: GmLYR3-1, 1 nM radioligand
Sequence of GmLYR3-1 (A5YJW2 entry or part of it): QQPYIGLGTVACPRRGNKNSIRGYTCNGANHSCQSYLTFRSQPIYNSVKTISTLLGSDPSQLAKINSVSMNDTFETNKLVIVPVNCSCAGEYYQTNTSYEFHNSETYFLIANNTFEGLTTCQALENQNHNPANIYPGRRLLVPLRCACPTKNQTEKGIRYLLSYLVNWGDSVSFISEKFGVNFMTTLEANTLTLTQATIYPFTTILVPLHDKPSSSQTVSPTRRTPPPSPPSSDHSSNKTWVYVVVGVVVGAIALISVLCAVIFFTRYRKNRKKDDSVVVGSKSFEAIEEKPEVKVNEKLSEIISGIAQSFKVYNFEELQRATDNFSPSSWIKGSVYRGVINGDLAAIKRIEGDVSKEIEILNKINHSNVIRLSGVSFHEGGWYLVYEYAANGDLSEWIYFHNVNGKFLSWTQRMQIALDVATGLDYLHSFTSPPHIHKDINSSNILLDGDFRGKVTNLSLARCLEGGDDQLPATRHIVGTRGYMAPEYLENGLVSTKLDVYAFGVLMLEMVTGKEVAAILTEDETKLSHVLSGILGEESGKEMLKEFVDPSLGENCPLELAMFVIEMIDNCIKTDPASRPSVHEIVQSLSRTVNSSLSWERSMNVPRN
Excerpt: as §3, §4

LjLYS12 = LjLYS12 (Lotus japonicus, UniProt D3KTZ9); test: as above; settings: LjLYS12, 1 nM radioligand
Sequence of LjLYS12 (D3KTZ9 entry or part of it): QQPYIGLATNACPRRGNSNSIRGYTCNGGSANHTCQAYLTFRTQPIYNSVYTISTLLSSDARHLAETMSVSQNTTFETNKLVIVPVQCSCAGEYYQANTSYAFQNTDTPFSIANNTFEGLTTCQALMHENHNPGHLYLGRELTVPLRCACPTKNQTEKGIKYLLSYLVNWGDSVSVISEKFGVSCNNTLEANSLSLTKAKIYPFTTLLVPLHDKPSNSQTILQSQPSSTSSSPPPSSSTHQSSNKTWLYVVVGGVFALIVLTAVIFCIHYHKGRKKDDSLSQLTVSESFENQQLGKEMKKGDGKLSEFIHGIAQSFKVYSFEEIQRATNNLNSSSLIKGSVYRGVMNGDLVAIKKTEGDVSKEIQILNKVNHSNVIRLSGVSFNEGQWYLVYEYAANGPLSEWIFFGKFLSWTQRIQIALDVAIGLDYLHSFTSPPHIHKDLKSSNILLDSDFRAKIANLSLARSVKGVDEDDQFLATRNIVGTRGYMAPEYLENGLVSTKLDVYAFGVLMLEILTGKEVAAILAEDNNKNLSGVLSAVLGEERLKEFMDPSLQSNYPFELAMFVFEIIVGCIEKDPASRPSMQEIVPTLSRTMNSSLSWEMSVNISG
Excerpt: as §3, §4

PsLYR3 = PsLYR3 (Lathyrus oleraceus, UniProt A0A9D5BD18); test: as above; design: species or system Pisum sativum; settings: PsLYR3, 1 nM radioligand
Sequence of PsLYR3 (A0A9D5BD18 entry or part of it): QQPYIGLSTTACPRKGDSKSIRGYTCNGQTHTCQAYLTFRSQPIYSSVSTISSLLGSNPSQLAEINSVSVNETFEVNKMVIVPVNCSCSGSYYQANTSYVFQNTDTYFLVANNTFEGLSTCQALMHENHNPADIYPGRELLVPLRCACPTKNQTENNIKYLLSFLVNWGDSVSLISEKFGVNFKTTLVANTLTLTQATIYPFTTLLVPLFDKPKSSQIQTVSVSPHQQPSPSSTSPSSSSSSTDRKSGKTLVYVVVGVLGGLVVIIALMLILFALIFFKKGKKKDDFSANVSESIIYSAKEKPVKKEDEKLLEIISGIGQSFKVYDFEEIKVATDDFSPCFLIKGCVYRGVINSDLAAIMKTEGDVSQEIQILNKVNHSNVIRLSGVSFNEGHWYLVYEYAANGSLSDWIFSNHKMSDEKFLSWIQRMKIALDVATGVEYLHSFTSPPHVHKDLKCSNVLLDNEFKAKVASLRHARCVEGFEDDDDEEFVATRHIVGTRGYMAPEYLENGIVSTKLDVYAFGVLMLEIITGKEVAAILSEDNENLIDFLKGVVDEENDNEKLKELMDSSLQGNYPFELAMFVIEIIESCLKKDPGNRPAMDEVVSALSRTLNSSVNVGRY
Excerpt: as §3, §4

Compound | Ki (LYR3) | Ki (PpLYR3; PpLYR3, competition) | binding of the radiolabeled photoactivatable ligand to the 100 kDa polypeptide in presence of excess competitor [1] | binding activity of membrane fractions (interaction with radioligand) (AtLysM-RLK4) | binding activity of membrane fractions (interaction with radioligand) (SILYR3) | binding activity of membrane fractions (interaction with radioligand) (PpLYR3; PpLYR3) | Kd (PpLYR3; PpLYR3, saturation) | binding activity of membrane fractions (interaction with radioligand) (LjNFR1) | binding activity of membrane fractions (interaction with radioligand) (LjNFR5) | binding activity of membrane fractions (interaction with radioligand) (PvLYR3) | binding activity of membrane fractions (interaction with radioligand) (GmLYR3-11) | binding activity of membrane fractions (interaction with radioligand) (GmLYR3-1) | binding activity of membrane fractions (interaction with radioligand) (LjLYS12) | binding activity of membrane fractions (interaction with radioligand) (PsLYR3)
CC(=O)N[C@H]1[C@H](O[C@H]2[C@H](O)[C@@H](NC(C)=O)C(O)O[C@@H]2CO)O[C@H](CO)[C@@H](O[C@@H]2O[C@H](CO)[C@@H](O[C@@H]3O[C@H](CO)[C@@H](O)[C@H](O)[C@H]3NC(C)=O)[C@H](O)[C@H]2NC(C)=O)[C@@H]1O (some centres unmarked) [CO-IV, chitotetraose] | > 5000 nM | > 5 µM | not |  |  |  |  |  |  |  |  |  |  | 
CCCCCC/C=C\CCCCC/C=C/C(=O)N[C@H]1[C@H](O[C@H]2[C@H](O)[C@@H](NC(C)=O)[C@H](O[C@H]3[C@H](O)[C@@H](NC(C)=O)[C@H](O[C@H]4[C@H](O)[C@@H](NC(C)=O)C(O)O[C@@H]4COS(=O)(=O)O)O[C@@H]3CO)O[C@@H]2CO)O[C@H](CO)[C@@H](O)[C@@H]1O (some centres unmarked) [LCO-IV (^35S, C16:2Δ2, 9)] |  |  |  | no interaction | very low | interacts | 15 nM | no interaction | no interaction | interact | interact | interact | interact | interact
